Experiments:
Assay type in all cases: cell-based, Human
HCT116 cells = test: Membrane integrity LDH release assay; details: 48 hr of treatment
Method: To test the biological activity of the compounds, we performed MTT (3-(4,5-dimethylthiazol-2-yl)-2,5-diphenyltetrazolium bromide) and lactate dehydrogenase (LDH) release assays. In addition, the importance of p53 status was evaluated by the use of two variants of HCT116 cells: HCT116 p53^wt (wild-type) and HCT116 p53^−/−. To track not only the toxic (lethal) but also growth-inhibitory (GI) effect in the MTT assay, we treated the cells for 6 days. In the experiment the toxic effect, but not the GI effect, was expected to be accompanied by LDH release.
Membrane integrity LDH release assay was performed using CytoTox-ONE kit (Promega). The cells were seeded on 96-well black plates, and after 24 hours treated with the compounds or DMSO for 2 days. The assay was performed according to the manufacturer’s instructions. For each well the data was calculated as a % of total LDH content, measured for the lysed cells, treated in the same manner as cells on that well.

HCT116 p53^wt cells [1] = tested on: HCT116 p53^wt cells
Description: […]. To investigate this effect, we analyzed the cell-cycle distribution. Cells treated for 48 hr with LCAHA or DMSO were pulse-labeled with BrdU for 1 hr and stained with fluorescein isothiocyanate (FITC)-anti-bromodeoxyuridine (BrdU) antibody and propidium iodide (PI). […].
[…]. To track the progression through the S phase and G0/G1 arrest precisely, we analyzed FITC-positive and -negative cells separately for cell-cycle distribution using ModFit LT software.
[…]. After that, the cells were either harvested by trypsinization and fixed with 96% ethanol, or cultured for additional 3-9 hours in the absence of BrdU before harvesting and fixation. The cells were stained with PI and FITC-conjugated anti-BrdU antibody (BioLegend, cat. 364104) and analysed with Fortessa flow cytometer (Becton Dickinson). Cell cycle distribution was analysed using ModFit LT Software (Verity Software House).
Figure S2. PI-BrdU pulse-chase labeling of HCT116 cells for the evaluation of cell cycle progression following LCAHA treatment. […].
HCT116 p53wt cells were seeded on culture dishes in growth medium containing 3.3% FBS and treated […]
the end of the treatment half of the medium was collected in a falcon tube, and the other half was supplemented with BrdU in a final concentration of 10 µM. After one hour, the medium containing BrdU was removed and the cells were trypsinized and fixed (time “t0”) or cultured in the medium previously collected in the falcon tube for additional 3, 6 or 9 hours. After that time the cells were trypsinized, fixed and stained with FITC conjugated anti-BrdU antibody and propidium iodide (PI). The cells were analyzed by flow cytometry using BD Fortessa cell analyzer and BD […] software. All cells, as well as FITC positive (BrdU+, top panel) and FITC negative (BrdU-, bottom panel) counts were exported to separate files and analyzed separately using ModFit LT Software. The graphs show mean ± SD values from three independent experiments. The statistical significance was evaluated using one-way ANOVA with Tukey’s […]

HCT116 p53^wt cells [2] = test: Western blot analysis of protein expression
Description: (§1) The progression from G1 to S phase relies largely on the expression and activity of D cyclins. To verify whether the observed impairment in cell-cycle progression following LCAHA treatment is associated with D cyclins, we investigated the expression of cyclins D1 and D3 in HCT116 p53^wt and HCT116 p53^−/− cells.

HCT116 p53^−/− cells = test: Western blot analysis of protein expression; details: 5 or 20 μM, 48 hr
Description: as §1

MCF-7 cells = test: Synchronization-release assay (serum starvation and release); details: pre-treatment during 2 days serum starvation, release 10% FBS 24 hr
Description: Cyclin D1 is a key modulator of the transition through the G1/S checkpoint and is known to be sensitive to proliferative signals delivered by the mitogens. To evaluate the interplay between the mitogens provided by the serum and LCAHA, we performed a synchronization-release assay on the cells treated with LCAHA. To assess the involvement of cyclin D1 in this interplay, we used MCF-7 (cyclin D1-dependent) and SAOS-2 (cyclin D1-negative) cells. The cells were synchronized in G0/G1 by the removal of fetal bovine serum (FBS) for 2 days of the culture in the presence of LCAHA. After this time, the cells were released by the addition of medium containing 10% FBS for 24 hr (still in the presence of the compound).
Figure S4. The analysis of the progression of MCF-7 and SAOS-2 cells through the cell cycle following serum starvation and release by the addition of serum. Related to […]
For the experiment, cyclin D1-dependent MCF-7 and cyclin D1-negative SAOS-2 cell lines were used.
The cells were synchronized in G0/G1 by the removal of FBS for 2 days of the culture in the presence of LCAHA compound. […] The cells were fixed, stained with PI and analysed for cell cycle distribution with ModFit LT Software. […] The statistical significance was evaluated using t-test: * p<0.05, ** […]

[3] = 5 μM, 48 hr, nine hours after BrdU pulse

C[C@H](CCC(=O)NO)[C@H]1CC[C@H]2[C@@H]3CC[C@@H]4C[C@H](O)CC[C@]4(C)[C@H]3CC[C@]12C [LCAHA, N-(hydroxy)-3-hydroxylithocholanamide]
LDH release (HCT116 cells): observed only at the concentrations corresponding to the high-concentration toxic effect
BrdU incorporation (rate of DNA synthesis) (HCT116 p53^wt cells [1]): dose-dependent decrease in the rate of DNA synthesis
BrdU^− cells that left G0/G1 phase and entered the S phase (HCT116 p53^wt cells [1]; [3]): 20%
proportion of BrdU^+ cells in G0/G1 phase (HCT116 p53^wt cells [1]; [3]): 24%
proportion of BrdU^+ cells remaining in the S phase (HCT116 p53^wt cells [1]; [3]): 56%
cell-cycle progression (HCT116 p53^wt cells [1]; 5 μM, control siRNA-transfected HCT116 cells): blocked the cell-cycle progression
G0/G1 arrest (HCT116 p53^wt cells [1]; 5 or 10 μM, 48 hr): mild, but significant G0/G1 arrest
cyclin D1 level over time course (HCT116 p53^wt cells [2]; 5 μM, 24, 26, 28, 30, or 32 hr): significant decrease in cyclin D1
cyclin D1 expression (HCT116 p53^wt cells [2]; 5 or 20 μM, 48 hr): significant, dose-dependent decrease
cyclin D3 expression (HCT116 p53^wt cells [2]; 5 or 20 μM, 48 hr): no effect
cyclin D1 expression (HCT116 p53^−/− cells): significant, dose-dependent decrease
cyclin D3 expression (HCT116 p53^−/− cells): no effect
entry into the S phase after serum release (MCF-7 cells): significantly inhibited the entry into the S phase

From publication PMC5404848 (Cell Chemical Biology, 2017)
